Experimental data as given in patent US7767659B2, “Synthesis of naturally occurring ecteinascidins and related compounds” (Pharma Mar, S.A., priority 2002, dated 2010).

Tests used:
PANC-1 = assay: Inhibition of cells growth by colorimetric assay (SRB); conditions: PANC-1, SRB, 48 hours exposure
Procedure, shortened: (§1)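 Colorimetric SRB read (490 nm) on triplicate wells after 48 h at 37 °C, 5% CO2. Dose range 10 to 10^−8 μg/ml; 5×10^3 cells/well pre-attached 18 h.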

K-562 = assay: as above; conditions: K562, SRB, 48 hours exposure
Procedure, shortened: as §1

HeLa = assay: as above; conditions: HELA, SRB, 48 hours exposure
Procedure, shortened: as §1

HeLa-APL = assay: as above; conditions: HELA-APL, SRB, 48 hours exposure
Procedure, shortened: as §1

LoVo-Dox = assay: as above; conditions: LOVO-DOX, SRB, 48 hours exposure
Procedure, shortened: as §1

SK-BR-3 = assay: as above; conditions: SK-BR3, SRB, 48 hours exposure
Procedure, shortened: as §1

IGROV-1 = assay: as above; conditions: IGROV, SRB, 48 hours exposure
Procedure, shortened: as §1

IGROV-ET = assay: as above; conditions: IGROV-ET, SRB, 48 hours exposure
Procedure, shortened: as §1

SK-MEL-28 = assay: as above; conditions: MEL-28, SRB, 48 hours exposure
Procedure, shortened: as §1

DU-145 = assay: as above; conditions: DU145, SRB, 48 hours exposure
Procedure, shortened: as §1

LNCaP = assay: as above; conditions: LNCAP, SRB, 48 hours exposure
Procedure, shortened: as §1

LoVo = assay: cells; conditions: LOVO, SRB, 48 hours exposure
Procedure, shortened: as §1

A-549 = assay: cells; conditions: A549, SRB, 48 hours exposure
Procedure, shortened: as §1

HT-29 = assay: cells; conditions: HT29, SRB, 48 hours exposure
Procedure, shortened: as §1

**Q.** `COC1=C(C)C(=O)C2=C(C1=O)C1C3C4SCC(NC(C)=O)C(=O)OCC(c5c6c(c(C)c(OC(C)=O)c54)OCO6)N3C(O)C(C2)N1C` (stereo not shown) [ET-637-quinone, ecteinascidin 637 quinone] was tested. Which “PANC-1 TGI” value (PANC-1) did it give?
**A.** 8.24E−09 Molar

**Q.** And the GI50 (PANC-1; read-out: PANC-1 GI50)?
**A.** 3.72 nM

**Q.** What about the CC50 (PANC-1; read-out: PANC-1 LC50) of the same molecule?
**A.** 3.42 nM

**Q.** And the “K562 TGI” value (K-562)?
**A.** 1.97E−09 Molar

**Q.** And the CC50 (K-562; read-out: K562 LC50)?
**A.** 14.4 nM

**Q.** And the “HELA TGI” value (HeLa)?
**A.** 4.88E−09 Molar

**Q.** What about the GI50 (HeLa; read-out: HELA GI50) of the same molecule?
**A.** 2.24 nM

**Q.** And the CC50 (HeLa; read-out: HELA LC50)?
**A.** 10.6 nM

**Q.** What about the “HELA-APL TGI” value (HeLa-APL) of the same molecule?
**A.** 5.12E−09 Molar

**Q.** And the GI50 (HeLa-APL; read-out: HELA-APL GI50)?
**A.** 2.39 nM

**Q.** And the CC50 (HeLa-APL; read-out: HELA-APL LC50)?
**A.** 10.9 nM

**Q.** And the “LOVO-DOX TGI” value (LoVo-Dox)?
**A.** 9.62E−07 Molar

**Q.** What about the GI50 (LoVo-Dox; read-out: LOVO-DOX GI50) of the same molecule?
**A.** 262 nM

**Q.** What about the CC50 (LoVo-Dox; read-out: LOVO-DOX LC50) of the same molecule?
**A.** 90 nM

**Q.** And the “SK-BR3 TGI” value (SK-BR-3)?
**A.** 2.67E−09 Molar

**Q.** What about the CC50 (SK-BR-3; read-out: SK-BR3 LC50) of the same molecule?
**A.** 8.51 nM

**Q.** And the “IGROV TGI” value (IGROV-1)?
**A.** 5.80E−09 Molar

**Q.** And the GI50 (IGROV-1; read-out: IGROV GI50)?
**A.** 2.76 nM

**Q.** And the CC50 (IGROV-1; read-out: IGROV LC50)?
**A.** 12.1 nM

**Q.** And the “IGROV-ET TGI” value (IGROV-ET)?
**A.** 6.91E−08 Molar

**Q.** What about the GI50 (IGROV-ET; read-out: IGROV-ET GI50) of the same molecule?
**A.** 34.2 nM

**Q.** And the CC50 (IGROV-ET; read-out: IGROV-ET LC50)?
**A.** 139 nM

**Q.** What about the “MEL-28 TGI” value (SK-MEL-28) of the same molecule?
**A.** 5.34E−09 Molar

**Q.** And the GI50 (SK-MEL-28; read-out: MEL-28 GI50)?
**A.** 2.96 nM

**Q.** And the CC50 (SK-MEL-28; read-out: MEL-28 LC50)?
**A.** 9.61 nM

**Q.** What about the “DU145 TGI” value (DU-145) of the same molecule?
**A.** 6.30E−09 Molar

**Q.** What about the GI50 (DU-145; read-out: DU145 GI50) of the same molecule?
**A.** 3.74 nM

**Q.** And the CC50 (DU-145; read-out: DU145 LC50)?
**A.** 15.3 nM

**Q.** And the “LNCAP TGI” value (LNCaP)?
**A.** 3.64E−09 Molar

**Q.** What about the GI50 (LNCaP; read-out: LNCAP GI50) of the same molecule?
**A.** 1.78 nM

**Q.** And the CC50 (LNCaP; read-out: LNCAP LC50)?
**A.** 7.44 nM

**Q.** What about the “LOVO TGI” value (LoVo) of the same molecule?
**A.** 8.51E−09 Molar

**Q.** And the GI50 (LoVo; read-out: LOVO GI50)?
**A.** 3.98 nM

**Q.** What about the CC50 (LoVo; read-out: LOVO LC50) of the same molecule?
**A.** 6.08 µM

**Q.** And the “A549 TGI” value (A-549)?
**A.** 1.09E−08 Molar

**Q.** And the GI50 (A-549; read-out: A549 GI50)?
**A.** 4.42 nM

**Q.** What about the CC50 (A-549; read-out: A549 LC50) of the same molecule?
**A.** 51.5 nM

**Q.** What about the “HT29 TGI” value (HT-29) of the same molecule?
**A.** 7.78E−09 Molar

**Q.** And the GI50 (HT-29; read-out: HT29 GI50)?
**A.** 3.32 nM

**Q.** And the CC50 (HT-29; read-out: HT29 LC50)?
**A.** 2260 nM
